According to patent publication US7205382B2, “Peptides, the production and use thereof for binding immunoglobulins” (Fresenius Medical Care Affina GmbH, priority 2000, dated 2007):
Bridge positions count the residues as written; N and C are the ends. Square brackets hold non-standard residues; d marks the D form. Ends that are not written are not given here. cellulose = not defined here; βAla = NCCC(=O)O

Tests used:
Type in all cases: binding
Parameters in all cases: key: No binding of immunoglobulin for the defined peptide variant, detection negative: 0; Binding of immunoglobulin for the defined peptide variant, detection positive: +
serum albumin = experiment: Cellulose-immobilized 13-mer peptide variants incubated with serum albumin (negative control), anti-human IgG-AP detection; conditions: blocking buffer without addition, 3 h room temperature
Summary of the method: (§1)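 SPOT-type 13-mer peptides on cellulose with a (βA)(βA) spacer, blocked in 5% saccharose/4% BSA in T-TBS pH 8.0. Incubated 3 h at RT with human IgG-Fc (1 μg/ml) or human serum/plasma (1:10,000), or with blocking buffer alone as the albumin specificity control. Bound IgG detected with AP-anti-human IgG (1.2 μg/ml) and NBT/BCIP colorimetric development at pH 9.5.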

[1] = tested on: immunoglobulins in human plasma; experiment: Cellulose-immobilized 13-mer peptide variants incubated with human plasma, anti-human IgG-AP detection; conditions: human plasma as sample, diluted 1:10,000 in blocking buffer, 3 h room temperature
Summary of the method: as §1

human IgG-Fc = experiment: Cellulose-immobilized 13-mer peptide variants incubated with human IgG-Fc, anti-human IgG-AP detection; conditions: IgG-Fc 1 μg/ml in blocking buffer, 3 h room temperature
Summary of the method: as §1

Result for incubation with serum albumin (immunoglobulin binding detection) (serum albumin) | Result for incubation with human plasma (immunoglobulin binding detection) [1] | Result for incubation with human IgG-Fc (immunoglobulin binding detection) (human IgG-Fc) | Substance
0 | 0 | 0 | 01C: cellulose-bound 13-mer variant CCAWHLGELVWCT-(βA)(βA) (CCAWHLGELVWCT[βAla][βAla]; cysteine pairing not given here; also: bound to cellulose support)
0 | 0 | + | 06A: cellulose-bound 13-mer variant DCAWHAGELVWCT-(βA)(βA) (DCAWHAGELVWCT[βAla][βAla]; disulfide 2-12 (inferred); not fully specified (N-terminus); printed as DCAWHAGELVWCT-(βA)(βA); also: cellulose-bound)
0 | 0 | 0 | 06V: cellulose-bound 13-mer variant DCAWHVGELVWCT-(βA)(βA) (DCAWHVGELVWCT-{βAla-βAla-cellulose}; disulfide 2-12 (inferred); not fully specified (N-terminus); printed as DCAWHVGELVWCT-(βA)(βA); reading uncertain)
0 | 0 | 0 | 09I: cellulose-bound 13-mer variant DCAWHLGEIVWCT-(βA)(βA) (DCAWHLGEIVWCT-{βAla-βAla-cellulose}; disulfide 2-12 (inferred); reading uncertain; also: printed as DCAWHLGEIVWCT-(βA)(βA))
0 | 0 | 0 | 10P: cellulose-bound 13-mer variant DCAWHLGELPWCT-(βA)(βA) (DCAWHLGELPWCT-{βAla-βAla-cellulose}; disulfide 2-12 (inferred); reading uncertain; also: printed as DCAWHLGELPWCT-(βA)(βA))
0 | 0 | 0 | 05K: cellulose-bound 13-mer variant DCAWKLGELVWCT-(βA)(βA) (disulfide 2-12 (inferred); not fully specified (N-terminus, C-terminus); printed as DCAWKLGELVWCT-(βA)(βA); also: cellulose-bound)
0 | 0 | 0 | 07K: cellulose-bound 13-mer variant DCAWHLKELVWCT-(βA)(βA) (DCAWHLKELVWCT-{βAla-βAla-cellulose}; disulfide 2-12 (inferred); not fully specified (N-terminus); printed as DCAWHLKELVWCT-(βA)(βA); reading uncertain)
0 | 0 | + | 08A: cellulose-bound 13-mer variant DCAWHLGALVWCT-(βA)(βA) (DCAWHLGALVWCT-{βAla-βAla-cellulose}; disulfide 2-12 (inferred); not fully specified (N-terminus); printed as DCAWHLGALVWCT-(βA)(βA); reading uncertain)
0 | 0 | 0 | 12I: cellulose-bound 13-mer variant DCAWHLGELVWIT-(βA)(βA) (DCAWHLGELVWIT-{βAla-βAla-cellulose}; not fully specified; printed as DCAWHLGELVWIT-(βA)(βA); reading uncertain)
0 | 0 | + | 03E: cellulose-bound 13-mer variant DCEWHLGELVWCT-(βA)(βA) (DCEWHLGELVWCT-{βAla-βAla-cellulose}; disulfide 2-12 (inferred); reading uncertain; also: printed as DCEWHLGELVWCT-(βA)(βA))
0 | 0 | 0 | 02G: cellulose-bound 13-mer variant DGAWHLGELVWCT-(βA)(βA) (DGAWHLGELVWCT[βAla][βAla]; not fully specified; printed as DGAWHLGELVWCT-(βA)(βA); also: cellulose-bound)
0 | 0 | 0 | 02N: cellulose-bound 13-mer variant DNAWHLGELVWCT-(βA)(βA) (DNAWHLGELVWCT[βAla][βAla]; not fully specified; printed as DNAWHLGELVWCT-(βA)(βA); also: cellulose-bound)
0 | 0 | 0 | 09H: cellulose-bound 13-mer variant DCAWHLGEHVWCT-(βA)(βA) (DCAWHLGEHVWCT-{βAla-βAla-cellulose}; disulfide 2-12 (inferred); reading uncertain; also: printed as DCAWHLGEHVWCT-(βA)(βA))
0 | 0 | 0 | 10R: cellulose-bound 13-mer variant DCAWHLGELRWCT-(βA)(βA) (DCAWHLGELRWCT-{βAla-βAla-cellulose}; disulfide 2-12 (inferred); reading uncertain; also: printed as DCAWHLGELRWCT-(βA)(βA))
0 | 0 | 0 | 12A: cellulose-bound 13-mer variant DCAWHLGELVWAT-(βA)(βA) (DCAWHLGELVWAT-{βAla-βAla-cellulose}; not fully specified; printed as DCAWHLGELVWAT-(βA)(βA); reading uncertain)
0 | 0 | 0 | 10M: cellulose-bound 13-mer variant DCAWHLGELMWCT-(βA)(βA) (DCAWHLGELMWCT-{βAla-βAla-cellulose}; disulfide 2-12 (inferred); reading uncertain; also: printed as DCAWHLGELMWCT-(βA)(βA))
0 | 0 | 0 | 09D: cellulose-bound 13-mer variant DCAWHLGEDVWCT-(βA)(βA) (DCAWHLGEDVWCT-{βAla-βAla-cellulose}; disulfide 2-12 (inferred); reading uncertain; also: printed as DCAWHLGEDVWCT-(βA)(βA))
0 | 0 | 0 | 11I: cellulose-bound 13-mer variant DCAWHLGELVICT-(βA)(βA)
0 | 0 | 0 | 09C: cellulose-bound 13-mer variant DCAWHLGECVWCT-(βA)(βA) (DCAWHLGECVWCT-{βAla-βAla-cellulose}; not fully specified; printed as DCAWHLGECVWCT-(βA)(βA); cysteine pairing not given here; reading uncertain)
0 | 0 | 0 | 11Y: cellulose-bound 13-mer variant DCAWHLGELVYCT-(βA)(βA)
0 | 0 | + | 04I: cellulose-bound 13-mer variant DCAIHLGELVWCT-(βA)(βA) (DCAIHLGELVWCT[βAla][βAla]; disulfide 2-12 (inferred); also: cellulose-bound)
0 | + | + | 08R: cellulose-bound 13-mer variant DCAWHLGRLVWCT-(βA)(βA) (DCAWHLGRLVWCT-{βAla-βAla-cellulose}; disulfide 2-12 (inferred); reading uncertain; also: printed as DCAWHLGRLVWCT-(βA)(βA))
